Tests used:
Type in all cases: in vivo
Digitaria sanguinalis [1] = assay: Post-emergence herbicidal efficacy at 320 g/ha, DIGSA; conditions: rated visually after about 3 weeks vs untreated controls, 100% = plants have died
Text: (§1) Unwanted plants/weeds: • ABUTH: Abutilon theophrasti • ALOMY: Alopecurus myosuroides • AMARE: Amaranthus retroflexus • DIGSA: Digitaria sanguinalis • ECHCG: Echinochloa crus-galli • KCHSC: Kochia scoparia • LOLRI: Lolium rigidum • MATIN: Matricaria inodora • POAAN: Poa annua • POLCO: Polygonum convolvulus • SETVI: Setaria viridis • STEME: Stellaria media • VERPE: Veronica persica • VIOTR: Viola tricolor A. Post-Emergence Herbicidal Efficacy at 320 g/ha
(§2) Seeds of mono- and dicotyledonous weed plants were placed in plastic pots in sandy loam soil (doubly sown with in each case one species of mono- or dicotyledonous weed plants per pot), covered with soil and cultivated in a greenhouse under controlled growth conditions. 2 to 3 weeks after sowing, the test plants were treated at the one-leaf stage. The compounds of the invention, formulated in the form of wettable powders (WP) or as emulsion concentrates (EC), were applied to the green parts of the plants as aqueous suspension or emulsion with addition of 0.5% additive at a water application rate equivalent to 600 litres per hectare. After the test plants had been kept in the greenhouse under optimum growth conditions for about 3 weeks, the activity of the preparations was rated visually in comparison to untreated controls.
(§3) For example, 100% activity=the plants have died, 0% activity=like control plants.
(§4) Tables A1 to A10 below show the effects of selected compounds of the general formula (I) according to Table 1 on various harmful plants and at an application rate corresponding to 320 g/ha, which were obtained by the trial procedure specified above.

Amaranthus retroflexus [2] = assay: Pre-emergence herbicide efficacy at 320 g/ha, AMARE; conditions: scored visually after about 3 weeks vs untreated controls, 100% = plants have died
How it was run: (§5)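 Visual percent activity versus untreated controls, read about 3 weeks after treatment, where 100% means dead plants and 0% means control-like growth. Compound (WP or EC, 0.5% additive, 600 L/ha water) was sprayed onto the covering soil over freshly sown weed seeds in sandy loam, then kept in a greenhouse.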

Poa annua [3] = assay: Pre-emergence herbicide efficacy at 320 g/ha, POAAN; conditions: scored visually after about 3 weeks vs untreated controls, 100% = plants have died
How it was run: as §5

Viola tricolor [4] = assay: Post-emergence herbicidal efficacy at 80 g/ha, VIOTR; conditions: rated visually after about 3 weeks vs untreated controls, 100% = plants have died
Text: as §1
(§6) Seeds of monocotyledonous and dicotyledonous weeds and crop plants were placed in sandy loam in plastic or organic planting pots, covered with soil and cultivated in a greenhouse under controlled growth conditions. 2 to 3 weeks after sowing, the test plants were treated at the one-leaf stage. The compounds of the invention, formulated in the form of wettable powders (WP) or as emulsion concentrates (EC), were then sprayed onto the green parts of the plants as aqueous suspension or emulsion with addition of 0.5% additive at a water application rate of 600 l/ha (converted). After the test plants had been kept in the greenhouse under optimum growth conditions for about 3 weeks, the activity of the preparations was rated visually in comparison to untreated controls. For example, 100% activity=the plants have died, 0% activity=like control plants.
(§7) Tables B1 to B11 below show the effects of selected compounds of the general formula (I) according to Table 1 on various harmful plants and an application rate corresponding to 80 g/ha, which were obtained by the experimental procedure mentioned above.

Amaranthus retroflexus [5] = assay: Pre-emergence herbicide efficacy at 80 g/ha, AMARE; conditions: scored visually after about 3 weeks vs untreated controls, 100% = plants have died
Text: as §1
(§8) Seeds of monocotyledonous and dicotyledonous weed plants and crop plants were placed in plastic or organic planting pots and covered with soil. The compounds of the invention, formulated in the form of wettable powders (WP) or as emulsion concentrates (EC), were then applied to the surface of the covering soil as aqueous suspension or emulsion with addition of 0.5% additive at a water application rate equivalent to 600 l/ha. After the treatment, the pots were placed in a greenhouse and kept under good growth conditions for the test plants. After about 3 weeks, the efficacy of the preparations was scored visually in comparison with untreated controls as percentages. For example, 100% activity=the plants have died, 0% activity=like control plants.
(§9) Tables D1 to D12 below show the effects of selected compounds of the general formula (I) according to Table 1 on various harmful plants and an application rate corresponding to 80 g/ha, which were obtained by the experimental procedure mentioned above.

Setaria viridis [6] = assay: Pre-emergence herbicide efficacy at 80 g/ha, SETVI
Text: as §1, §8, §9

Veronica persica [7] = assay: Post-emergence herbicidal efficacy at 80 g/ha, VERPE; conditions: rated visually after about 3 weeks vs untreated controls, 100% = plants have died
How it was run: (§10)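 Visual damage ratings, 0% (like untreated controls) to 100% (plants dead), were taken about 3 weeks after treatment. Plants were sprayed at the one-leaf stage with WP- or EC-formulated compound in water containing 0.5% additive, 600 l/ha, having been raised in sandy loam in the greenhouse.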

Veronica persica [8] = assay: Post-emergence herbicidal efficacy at 320 g/ha, VERPE; conditions: rated visually after about 3 weeks vs untreated controls, 100% = plants have died
How it was run: (§11)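 Visual rating about 3 weeks after treatment, scored against untreated plants on a scale from 0% (no effect) to 100% (dead). Application was foliar, as aqueous WP or EC suspension or emulsion with 0.5% additive at 600 L/ha, on one-leaf-stage greenhouse plants 2–3 weeks old, grown in sandy loam.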

Amaranthus retroflexus [9] = assay: Post-emergence herbicidal efficacy at 80 g/ha, AMARE; conditions: rated visually after about 3 weeks vs untreated controls, 100% = plants have died
How it was run: as §10

Digitaria sanguinalis [10] = assay: Pre-emergence herbicide efficacy at 80 g/ha, DIGSA; conditions: scored visually after about 3 weeks vs untreated controls, 100% = plants have died
Text: as §1, §8, §9

Kochia scoparia [11] = assay: Pre-emergence herbicide efficacy at 320 g/ha, KCHSC; conditions: scored visually after about 3 weeks vs untreated controls, 100% = plants have died
How it was run: as §5

Setaria viridis [12] = assay: Post-emergence herbicidal efficacy at 80 g/ha, SETVI; conditions: rated visually after about 3 weeks vs untreated controls, 100% = plants have died
Text: as §1, §6, §7

Echinochloa crus-galli [13] = assay: Pre-emergence herbicide efficacy at 320 g/ha, ECHCG; conditions: scored visually after about 3 weeks vs untreated controls, 100% = plants have died
How it was run: as §5

Alopecurus myosuroides [14] = assay: Pre-emergence herbicide efficacy at 320 g/ha, ALOMY; conditions: scored visually after about 3 weeks vs untreated controls, 100% = plants have died
Text: as §1
(§12) Seeds of mono- and dicotyledonous weed plants were placed in plastic pots in sandy loam soil (doubly sown with one species each of mono- or dicotyledonous weed plants per pot) and covered with soil. The compounds of the invention, formulated in the form of wettable powders (WP) or as emulsion concentrates (EC), were then applied to the surface of the covering soil as aqueous suspension or emulsion with addition of 0.5% additive at a water application rate of 600 litres per hectare (converted). After the treatment, the pots were placed in a greenhouse and kept under good growth conditions for the test plants. After about 3 weeks, the efficacy of the preparations was scored visually in comparison with untreated controls as percentages.
as §3
(§13) Tables C1 to C12 below show the effects of selected compounds of the general formula (I) according to Table 1 on various harmful plants and at an application rate corresponding to 320 g/ha, which were obtained by the trial procedure specified above.

Echinochloa crus-galli [15] = assay: Post-emergence herbicidal efficacy at 320 g/ha, ECHCG; conditions: rated visually after about 3 weeks vs untreated controls, 100% = plants have died
How it was run: as §11

Veronica persica [16] = assay: Pre-emergence herbicide efficacy at 320 g/ha, VERPE; conditions: scored visually after about 3 weeks vs untreated controls, 100% = plants have died
How it was run: as §5

Digitaria sanguinalis [17] = assay: Pre-emergence herbicide efficacy at 320 g/ha, DIGSA; conditions: scored visually after about 3 weeks vs untreated controls, 100% = plants have died
How it was run: as §5

Stellaria media [18] = assay: Post-emergence herbicidal efficacy at 320 g/ha, STEME; conditions: rated visually after about 3 weeks vs untreated controls, 100% = plants have died
How it was run: as §11

Veronica persica [19] = assay: Pre-emergence herbicide efficacy at 80 g/ha, VERPE
Text: as §1, §8, §9

Viola tricolor [20] = assay: Pre-emergence herbicide efficacy at 80 g/ha, VIOTR
Text: as §1, §8, §9

Setaria viridis [21] = assay: Pre-emergence herbicide efficacy at 320 g/ha, SETVI; conditions: scored visually after about 3 weeks vs untreated controls, 100% = plants have died
How it was run: as §5

Poa annua [22] = assay: Post-emergence herbicidal efficacy at 320 g/ha, POAAN; conditions: rated visually after about 3 weeks vs untreated controls, 100% = plants have died
Text: as §1, §2, §3, §4

Amaranthus retroflexus [23] = assay: Post-emergence herbicidal efficacy at 320 g/ha, AMARE; conditions: rated visually after about 3 weeks vs untreated controls, 100% = plants have died
How it was run: as §11

Abutilon theophrasti [24] = assay: Pre-emergence herbicide efficacy at 320 g/ha, ABUTH; conditions: scored visually after about 3 weeks vs untreated controls, 100% = plants have died
Text: as §1, §12, §3, §13

Kochia scoparia [25] = assay: Post-emergence herbicidal efficacy at 320 g/ha, KCHSC; conditions: rated visually after about 3 weeks vs untreated controls, 100% = plants have died
How it was run: as §11

Kochia scoparia [26] = assay: Post-emergence herbicidal efficacy at 80 g/ha, KCHSC; conditions: rated visually after about 3 weeks vs untreated controls, 100% = plants have died
How it was run: as §10

Abutilon theophrasti [27] = assay: Post-emergence herbicidal efficacy at 320 g/ha, ABUTH; conditions: rated visually after about 3 weeks vs untreated controls, 100% = plants have died
How it was run: as §11

Abutilon theophrasti [28] = assay: Post-emergence herbicidal efficacy at 80 g/ha, ABUTH; conditions: rated visually after about 3 weeks vs untreated controls, 100% = plants have died
Text: as §1, §6, §7

Stellaria media [29] = assay: Pre-emergence herbicide efficacy at 320 g/ha, STEME; conditions: scored visually after about 3 weeks vs untreated controls, 100% = plants have died
How it was run: as §5

Alopecurus myosuroides [30] = assay: Post-emergence herbicidal efficacy at 320 g/ha, ALOMY; conditions: rated visually after about 3 weeks vs untreated controls, 100% = plants have died
Text: as §1, §2, §3, §4

Fc1cccc(Nc2ncc(Cl)cn2)c1-c1cc(C(F)F)no1 [Example 1-33]
Post-emergence efficacy at 320 g/ha against DIGSA in % (Digitaria sanguinalis [1]): 100% | Pre-emergence efficacy at 320 g/ha against AMARE in % (Amaranthus retroflexus [2]): 100% | Pre-emergence efficacy at 320 g/ha against POAAN in % (Poa annua [3]): 100% | Post-emergence efficacy at 80 g/ha against VIOTR in % (Viola tricolor [4]): 100% | Pre-emergence efficacy at 80 g/ha against AMARE in % (Amaranthus retroflexus [5]): 100% | Pre-emergence efficacy against SETVI (Setaria viridis [6]): 100% | Post-emergence efficacy at 80 g/ha against VERPE in % (Veronica persica [7]): 100% | Post-emergence efficacy at 320 g/ha against VERPE in % (Veronica persica [8]): 100% | Post-emergence efficacy at 80 g/ha against AMARE in % (Amaranthus retroflexus [9]): 100% | Pre-emergence efficacy at 80 g/ha against DIGSA in % (Digitaria sanguinalis [10]): 90% | Pre-emergence efficacy at 320 g/ha against KCHSC in % (Kochia scoparia [11]): 100% | Post-emergence efficacy at 80 g/ha against SETVI in % (Setaria viridis [12]): 100% | Pre-emergence efficacy at 320 g/ha against ECHCG in % (Echinochloa crus-galli [13]): 100% | Pre-emergence efficacy at 320 g/ha against ALOMY in % (Alopecurus myosuroides [14]): 100% | Post-emergence efficacy at 320 g/ha against ECHCG in % (Echinochloa crus-galli [15]): 100% | Pre-emergence efficacy at 320 g/ha against VERPE in % (Veronica persica [16]): 100% | Pre-emergence efficacy at 320 g/ha against DIGSA in % (Digitaria sanguinalis [17]): 100% | Post-emergence efficacy at 320 g/ha against STEME in % (Stellaria media [18]): 100% | Pre-emergence efficacy against VERPE (Veronica persica [19]): 90% | Pre-emergence efficacy against VIOTR (Viola tricolor [20]): 90% | Pre-emergence efficacy at 320 g/ha against SETVI in % (Setaria viridis [21]): 100% | Post-emergence efficacy at 320 g/ha against POAAN in % (Poa annua [22]): 100% | Post-emergence efficacy at 320 g/ha against AMARE in % (Amaranthus retroflexus [23]): 100% | Pre-emergence efficacy at 320 g/ha against ABUTH in % (Abutilon theophrasti [24]): 100% | Post-emergence efficacy at 320 g/ha against KCHSC in % (Kochia scoparia [25]): 100% | Post-emergence efficacy at 80 g/ha against KCHSC in % (Kochia scoparia [26]): 100% | Post-emergence efficacy at 320 g/ha against ABUTH in % (Abutilon theophrasti [27]): 100% | Post-emergence efficacy at 80 g/ha against ABUTH in % (Abutilon theophrasti [28]): 80% | Pre-emergence efficacy at 320 g/ha against STEME in % (Stellaria media [29]): 100% | Post-emergence efficacy at 320 g/ha against ALOMY in % (Alopecurus myosuroides [30]): 100%
